# In US6362396B1, “Chimeric gene for the transformation of plants” (Aventis Crop Science, priority 1992, dated 2002):
# Key:
# tobacco PBD6 plants = assay: Measurement of the glyphosate tolerance of transformed tobacco plants sown in the open; type: in vivo; conditions: untransformed tobacco PBD 6 controls, 0.8 kg/ha, 5-leaf stage, 30 days after the treatment
# Experimental: The vector is introduced into the nononcogenic agrobacterium strain EHA 101 (Hood et al., 1987) carrying the cosmid pTVK 291 (Komari et al., 1986). The transformation method is based on the procedure of Horsh et al. (1985).
# The regeneration of the tobacco PBD6 (source SEITA France) using foliar explants is carried out on a Murashige and Skoog (MS) basic medium containing 30 g/l of sucrose and […] of kanamycin. The foliar explants are removed from greenhouse- or in vitro-grown plants and transformed according to the foliar disc method (Science 1985, Vol. 227, p. 1229-1231) in three successive stages: the first comprises the induction of shoots on an MS medium supplemented with 30 g of sucrose containing 0.05 mg of naphthylacetic acid (ANA) and 2 mg/l of benzylaminopurine (BAP), for 15 days. The shoots formed during this stage are then developed by culturing on an MS medium supplemented with 30 g/l of sucrose, but not containing hormone, for 10 days. […]
# The best plants obtained from the regeneration of transformed tobaccos are selected under a greenhouse after treating the plants, at the 5-leaf stage, […] […] Molecular hybridization analysis enabled the plants having integrated only one copy of the T-DNA to be determined. […]
# [1] = test system: Spring colzas, Westar cultivar; assay: Greenhouse glyphosate treatment of transformed spring colza; type: in vivo; conditions: 400 g a.s/ha
# From the text: Spring colzas, Westar cultivar, resistant to glyphosate, were obtained using the method of BOULTER et al., 1990 (Plant Science, 70: 91-99), with the constructs pRPA-BL 488 (dH-At-PTO-aroA-nos), pRPA-BL 502 (CaMV/H-At-PTO- aroA-nos).
smiles,measurement,setting,value
"O=C(O)CNCP(=O)(O)O [glyphosate, N-(phosphonomethyl)glycine]",effect of glyphosate on control (untransformed) plants (phytotoxicity),tobacco PBD6 plants,completely destroyed
same,effect of glyphosate treatment on nontransgenic plants,[1],destroys nontransgenic plants
